# Data published in US12637440B2, “Amide derivative useful as diacylglycerol acyltransferase 2 inhibitor, and use thereof” (LG CHEM, LTD., priority 2019, dated 2026).
# Biological target: T1, Recombinant human DGAT2 protein (Homo sapiens, UniProt Q96PD7)
# T1 construct: FLAG (DYKDDDDK); (N); made in house; host or cells: Sf-21 insect cells (BacPAK baculovirus system); used as a membrane preparation
# T1 sequence (Q96PD7 1-388): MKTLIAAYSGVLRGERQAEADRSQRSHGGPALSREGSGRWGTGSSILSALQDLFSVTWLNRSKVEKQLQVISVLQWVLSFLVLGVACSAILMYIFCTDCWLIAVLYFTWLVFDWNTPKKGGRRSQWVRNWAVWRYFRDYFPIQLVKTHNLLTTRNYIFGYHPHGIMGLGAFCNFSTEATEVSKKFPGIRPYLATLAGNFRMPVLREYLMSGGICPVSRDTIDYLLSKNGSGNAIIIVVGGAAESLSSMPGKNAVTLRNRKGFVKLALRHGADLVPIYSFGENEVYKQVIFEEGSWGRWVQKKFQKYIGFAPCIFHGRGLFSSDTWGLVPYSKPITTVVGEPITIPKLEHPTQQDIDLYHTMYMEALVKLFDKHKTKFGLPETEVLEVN
# Test: Measurement of inhibitory effect against DGAT2 enzyme activity (SPA, Phospholipid FlashPlate, [14C]-TG production)
# Type: biochemical
# Details: concentration inhibiting [14C]-labeled triacyl glycerol (TG) production by 50%; 2 μg DGAT2-membrane protein from Sf-21 cells, 37° C.
# Protocol: Experimental Example: Measurement of Inhibitory Effect Against DGAT2 Enzyme Activity
# In order to prepare the pBacPAK9-DGAT2, which is DGAT2 expression vector, the human DGAT2 gene amplified by polymerase chain reaction (PCR) was cloned into the EcoR1 and Xho1 sites of the pBacPAK9 (clonctech) vector. The nucleotide sequence of the primers used in PCR was the forward primer 5′ […] and the reverse primer 5′ […]. The composition of the reaction solution was to contain 50 ng of cDNA clone (OriGene), 200 μM of dATP, dCTP, dTTP, dGTP, 200 nM of each primer, 1 unit of Tag DNA Polymerase (Toyobo), 1×PCR buffer, and the final volume was adjusted to 20 μl. The reaction conditions were denatured at 95° C. for 5 minutes, followed by 30 times of 94° C. for 20 seconds, 60° C. for 20 seconds, and 72° C. for 90 seconds, followed by further reaction at 72° C. for 7 minutes.
# Recombinant human DGAT2 protein was expressed in Sf-21 cells, which are insect cells, by using the BacPack baculovirus expression system (Clontech). The brief manufacturing process is as follows. First, the pBacPAK9-DGAT2 expression vector was transfected with BacPAK6 virus DNA (Bsu36I digest) into sf21 cells using Bacfectin to prepare a recombinant DGAT2 expressing baculovirus. The thus prepared baculovirus was infected with Sf-21 cells at 10 MOI (multiplicity of infection), and after 72 hours, infected insect cells were collected and membrane proteins were isolated. For membrane protein separation, the cell pellet was dissolved in a sucrose solution containing 250 mM sucrose, 10 mM Tris (pH 7.4), and 1 mM ethylenediamine-tetraacetic acid (EDTA), and then homogenized by using a dounce homogenizer, and the supernatant was taken by centrifuging at 600×g for 15 minutes, and centrifuged at 100,000×g for 1 hour to discard the supernatant, and the remaining pellet was resuspended in 20 mM HEPES buffer (pH 7.4). The prepared DGAT2 overexpressing membrane protein was dispensed in 100 μl and stored at −80° C. until use. Protein concentration was quantified by using the BCA Protein Assay Kit (Thermo Scientific).
# In vitro DGAT2 analysis was performed using a Phospholipid Flash Plate (PerkinElmer) based on the principle of SPA (Scintillation Proximity Assay). First, DGAT2 inhibition compounds serially diluted 5 times from 3 nM to 10 μM (final concentration, 1% DMSO) were mixed in a buffer solution containing 2 μg DGAT2-membrane protein and 20 mM HEPES, 20 mM MgCl2, 1 mg/mL BSA, 50 μM 1,2 sn-oleoyl glycerol (Sigma), put in a 96-well flash plate (FlashPlate) and reacted at 37° C. for 20 minutes, and then 1 μM [14C] ole oil CoA (PerkinElmer, NEC651050UC) was added to be a final volume of 100 μL and further reacted at 37° C. for 15 minutes. After the enzymatic reaction was completed, 100 μL of isopropanol was added, the plate was sealed with a film, and the plate was shaken slowly in a plate shaker. The next day, the amplified scintillation signal (cpm) in Topcounter (Packard) was measured to measure the degree of production of [14C]-labeled triacyl glycerol (TG) as a reaction product. The measured value when the compound was not treated was used as a positive control, and the measured value of the compound treated group was calculated as a relative % to measure the inhibition effect of the compound on TG production.
row,IC50 [µM],Compound
1,0.45,CCOc1ccccc1O[C@@H]1CCCN(c2cncc(NC(=O)Cc3ccc(OCC(C)(C)C(=O)O)cc3)n2)C1 [Example 102]
2,0.083,"CCOc1ccccc1O[C@@H]1CCCN(c2cncc(NC(=O)CCc3cccc(CC(C)(C)C(=O)O)c3)n2)C1 [Example 127, (R)-3-(3-(3-((6-(3-(2-ethoxyphenoxy)piperidin-1-yl)pyrazin-2-yl)amino)-3-oxopropyl)phenyl)-2,2-dimethylpropanoic acid]"
3,0.035,"CCOc1cccnc1O[C@@H]1CCCN(c2cncc(NC(=O)CCc3ccc(C(C)(C)C(=O)O)cc3)n2)C1 [Example 123, (R)-2-(4-(3-((6-(3-((3-ethoxypyridin-2-yl)oxy)piperidin-1-yl)pyrazin-2-yl)amino)-3-oxopropyl)phenyl)-2-methylpropanoic acid]"
4,0.69,"CCOc1ccccc1O[C@@H]1CCCN(c2cncc(NC(=O)C(C)(C)Cc3ccc(C(C)(C)C(=O)O)cc3)n2)C1 [Example 111, (R)-2-(4-(3-((6-(3-(2-ethoxyphenoxy)piperidin-1-yl)pyrazin-2-yl)amino)-2,2-dimethyl-3-oxopropyl)phenyl)-2-methylpropanoic acid]"
5,0.078,"CCOc1cccnc1O[C@@H]1CCCN(c2cncc(NC(=O)CCc3ccc(OC(C)(C)C(=O)O)cc3)n2)C1 [Example 108, (R)-2-(4-(3-((6-(3-((3-ethoxypyridin-2-yl)oxy)piperidin-1-yl)pyrazin-2-yl)amino)-3-oxopropyl)phenoxy)-2-methylpropanoic acid]"
6,0.038,"CCOc1cccnc1O[C@@H]1CCCN(c2cncc(NC(=O)Cc3ccc(CC(C)(C)C(=O)O)cc3)n2)C1 [Example 116, (R)-3-(4-(2-((6-(3-((3-ethoxypyridin-2-yl)oxy)piperidin-1-yl)pyrazin-2-yl)amino)-2-oxoethyl)phenyl)-2,2-dimethylpropanoic acid]"
7,0.54,"CCOc1ccccc1O[C@@H]1CCCN(c2cncc(NC(=O)c3cccc(-c4cccc(CC(C)(C)C(=O)O)c4)c3)n2)C1 [Example 129, (R)-3-(3′-((6-(3-(2-ethoxyphenoxy)piperidin-1-yl)pyrazin-2-yl)carbamoyl)-[1,1′-biphenyl]-3-yl)-2,2-dimethylpropanoic acid]"
8,0.098,"CCOc1ccccc1O[C@@H]1CCCN(c2cncc(NC(=O)/C=C/C34CCC(C(=O)O)(CC3)CC4)n2)C1 [Example 121, (R,E)-4-(3-((6-(3-(2-ethoxyphenoxy)piperidin-1-yl)pyrazin-2-yl)amino)-3-oxoprop-1-en-1-yl)bicyclo[2.2.2]octane-1-carboxylic acid]"
9,0.66,"CCOc1ccccc1O[C@@H]1CCCN(c2cncc(NC(=O)Cc3ccc(O[C@@H](C)C(=O)O)cc3)n2)C1 [Example 104, (S)-2-(4-(2-((6-((R)-3-(2-ethoxyphenoxy)piperidin-1-yl)pyrazin-2-yl)amino)-2-oxoethyl)phenoxy)propanoic acid]"

# More lines, now with the values behind:
row,Compound,IC50 [µM]
1,"CCOc1ccccc1O[C@@H]1CCCN(c2cncc(NC(=O)N3CCOCC3)n2)C1 [Example 3, (R)—N-(6-(3-(2-ethoxyphenoxy)piperidin-1-yl)pyrazin-2-yl)morpholine-4-carboxamide]",2.3
2,CCOc1ccccc1O[C@@H]1CCCN(c2cncc(NC(=O)Cc3cccc(C(F)(F)F)c3)n2)C1 [Example 26],0.054
3,"CCOc1ccccc1O[C@@H]1CCCN(c2cncc(NC(=O)C3CCN(c4ncc(CC)cn4)CC3)n2)C1 [Example 18, (R)—N-(6-(3-(2-ethoxyphenoxy)piperidin-1-yl)pyrazin-2-yl)-1-(5-ethylpyrimidin-2-yl)piperidine-4-carboxamide]",0.008
4,"CCOc1ccccc1O[C@@H]1CCCN(c2cncc(NC(=O)c3cccc(OC)c3)n2)C1 [Example 8, (R)—N-(6-(3-(2-ethoxyphenoxy)piperidin-1-yl)pyrazin-2-yl)-3-methoxybenzamide]",0.23
5,"CCOc1ccccc1O[C@@H]1CCCN(c2cncc(NC(=O)CCc3ccc(C(C)(C)C(=O)O)cc3)n2)C1 [Example 51, (R)-2-(4-(3-((6-(3-(2-ethoxyphenoxy)piperidin-1-yl)pyrazin-2-yl)amino)-3-oxopropyl)phenyl)-2-methylpropanoic acid]",0.033
6,"CCOc1ccccc1O[C@@H]1CCCN(c2cncc(NC(=O)C3CCN(c4ccc(C(C)(C)C(=O)O)cn4)CC3)n2)C1 [Example 81, (R)-2-(6-(4-((6-(3-(2-ethoxyphenoxy)piperidin-1-yl)pyrazin-2-yl)carbamoyl)piperidin-1-yl)pyridin-3-yl)-2-methylpropanoic acid]",0.74
7,"CC(C)Oc1ccccc1O[C@@H]1CCCN(c2cncc(NC(=O)Cc3ccc(CC(=O)O)cc3)n2)C1 [Example 90, (R)-2-(4-(2-((6-(3-(2-isopropoxyphenoxy)piperidin-1-yl)pyrazin-2-yl)amino)-2-oxoethyl)phenyl)acetic acid]",> 10
8,"CCOc1ccccc1O[C@@H]1CCCN(c2cncc(NC(=O)Cc3ccc(OCCCC(=O)O)cc3)n2)C1 [Example 37, (R)-4-(4-(2-((6-(3-(2-ethoxyphenoxy)piperidin-1-yl)pyrazin-2-yl)amino)-2-oxoethyl)phenoxy)butanoic acid]",0.46
9,"CCOc1ccccc1O[C@@H]1CCCN(c2cncc(NC(=O)C(C)(C)c3ccccc3)n2)C1 [Example 31, (R)—N-(6-(3-(2-ethoxyphenoxy)piperidin-1-yl)pyrazin-2-yl)-2-methyl-2-phenylpropanamide]",0.18
10,"CCOc1ccccc1O[C@@H]1CCCN(c2cncc(NC(=O)Cc3ccc(C(C)(C)C(=O)O)cc3)n2)C1 [Example 69, (R)-2-(4-(2-((6-(3-(2-ethoxyphenoxy)piperidin-1-yl)pyrazin-2-yl)amino)-2-oxoethyl)phenyl)-2-methylpropanoic acid]",0.97
11,CCOc1ccccc1O[C@@H]1CCCN(c2cncc(NC(=O)Cc3ccc(C[C@@H](C)C(=O)O)cc3)n2)C1 [Example 63],0.14
12,CCOc1ccccc1O[C@@H]1CCCN(c2cncc(NC(=O)C3CCN(C(C)=O)CC3)n2)C1 [Example 16],0.39
13,"CCOc1ccccc1O[C@@H]1CCCN(c2cncc(NC(=O)Nc3ccc(CC(=O)O)cc3)n2)C1 [Example 67, (R)-2-(4-(3-(6-(3-(2-ethoxyphenoxy)piperidin-1-yl)pyrazin-2-yl)ureido)phenyl)acetic acid]",6.1
14,"C=C(CNc1ccc(CCC(=O)O)cc1)C(=O)Nc1cncc(N2CCC[C@@H](Oc3ccccc3OCC)C2)n1 [Example 74, (R)-3-(4-((2-((6-(3-(2-ethoxyphenoxy)piperidin-1-yl)pyrazin-2-yl)carbamoyl)allyl)amino)phenyl)propanoic acid]",1.3
15,"CCOc1ccccc1O[C@@H]1CCCN(c2cncc(N3C(=O)CC(C)(C)C3=O)n2)C1 [Example 23, (R)-1-(6-(3-(2-ethoxyphenoxy)piperidin-1-yl)pyrazin-2-yl)-3,3-dimethylpyrrolidine-2,5-dione]",7.4
16,CCOc1ccccc1O[C@@H]1CCCN(c2cc(C(F)(F)F)nc(NC(=O)Cc3ccc(CC(C)(C)C(=O)O)cc3)n2)C1 [Example 72],1.8
17,"CCOc1ccccc1O[C@@H]1CCCN(c2cncc(NC(=O)Cc3cccc(C(=O)O)c3)n2)C1 [Example 33, (R)-3-(2-((6-(3-(2-ethoxyphenoxy)piperidin-1-yl)pyrazin-2-yl)amino)-2-oxoethyl)benzoic acid]",4.5
